`O=C(Nc1ccncc1)c1nc(Nc2ccc3[nH]ncc3c2)c2ccccc2n1` [Example 131, 4-(1H-indazol-5-ylamino)-N-(4-pyridinyl)-2-quinazolinecarboxamide] and `O=C(Nc1ccccn1)c1nc(Nc2ccc3[nH]ncc3c2)c2ccccc2n1` [Example 135, 4-(1H-indazol-5-ylamino)-N-(2-pyridinyl)-2-quinazolinecarboxamide] cannot be ordered by melting point: 295 to 298 °C for the first, 297 to 300 °C for the second.

First: COc1ccc(NC(=O)c2nc(Nc3ccc4[nH]ncc4c3)c3ccccc3n2)cc1 [Example 132, 4-(1H-indazol-5-ylamino)-N-(4-methoxyphenyl)-2-quinazolinecarboxamide]
Second: O=C(Nc1cnc2ccccc2c1)c1nc(Nc2ccc3[nH]ncc3c2)c2ccccc2n1 [Example 136, 4-(1H-indazol-5-ylamino)-N-(3-quinolinyl)-2-quinazolinecarboxamide]
The melting point of the first is lower: 210 to 213 °C for the first, 249 to 252 °C for the second.

First: O=C(NC1CCCCC1)c1nc(Nc2ccc3[nH]ncc3c2)c2ccccc2n1 [Example 133, N-cyclohexyl-4-(1H-indazol-5-ylamino)-2-quinazolinecarboxamide]
Second: O=C(NC1CCCC1)c1nc(Nc2ccc3[nH]ncc3c2)c2ccccc2n1 [Example 134, N-cyclopentyl-4-(1H-indazol-5-ylamino)-2-quinazolinecarboxamide]
The melting point of the first is lower: 215 to 217 °C for the first, 237 to 239 °C for the second.

`CNC(=O)c1nc(Nc2ccc3[nH]ncc3c2)c2ccccc2n1` [Example 137, 4-(1H-indazol-5-ylamino)-N-methyl-2-quinazolinecarboxamide] and `Cc1nc(Nc2ccc3[nH]ncc3c2)c2ccccc2n1` [Example 139, N-(1H-indazol-5-yl)-N-(2-methyl-4-quinazolinyl)amine] cannot be ordered by melting point: 283 to 286 °C for the first, 282 to 288 °C for the second.

— patent US20100137324A1, “RHO-KINASE INHIBITORS” (priority 2001, published 2010)
